The source of these data is US20230089530A1, “QUINUCLIDINONE ANALOGUES AS ANTICANCER AGENTS” (Newave Pharmaceutical Inc., priority 2020, published 2023).

In data set [1] the test system is RS4;11(G101V) cancer cells. Kind of data set: In vitro anti-proliferation assay in RS4;11 cell line with G101V mutation (ATPlite luminescence). Conditions: about 72 hours incubation, medium supplemented with 5% FBS or 10% normal human serum. It is filed as cell-based. How it is done: Biological Example 1: In Vitro Anti-Proliferation Assay in BCL-2-Dependent Acute Lymphoblastic Leukemia (ALL) Cell Line RS4;11 with G101V Mutation
(§1) The RS4;11 cell line used herein was engineered to stably overexpress the G101V mutant form of human Bcl-2. The cell antiproliferation was assayed by PerkinElmer ATPlite™ Luminescence Assay System. Briefly, the RS4;11(G101V) cancer cells were plated at a density of about 1×10^4 cells per well in Costar 96-well plates, and were incubated with different concentrations of compounds for about 72 hours in medium supplemented with 5% FBS or 10% normal human serum (NHS). One lyophilized substrate solution vial was then reconstituted by adding 5 mL of substrate buffer solution, and was agitated gently until the solution was homogeneous. About 50 μL of mammalian cell lysis solution was added to 100 μL of cell suspension per well of a microplate, and the plate was shaken for about five minutes in an orbital shaker at ˜700 rpm. This procedure was used to lyse the cells and to stabilize the ATP. Next, 50 μL substrate solution was added to the wells and microplate was shaken for five minutes in an orbital shaker at ˜700 rpm. Finally, the luminescence was measured by a PerkinElmer TopCount® Microplate Scintillation Counter. Such assays, carried out with a range of doses of test compounds, allowed the determination of the cellular anti-antiproliferative IC50 of the compounds of the present invention. The following table lists the IC50 values of certain compounds of the invention.
For orientation: Cellular ATP, detected with luciferase, serves as a proxy for viable cell number.

Data set [2] is described as follows: Mice PK study. It is filed as in vivo. To be noted: CD-1 mouse. How it is done: The pharmacokinetics of compounds were evaluated in CD-1 mouse via Intravenous and Oral Administration. The IV dose was administered as a slow bolus in the Jugular vein, and oral doses were administered by gavage. The formulation for IV dosing was 5% DMSO in 20% HPBCD in water, and the PO formulation was 2.5% DMSO, 10% EtOH, 20% Cremphor EL, 67.5% D5W. The PK time point for the IV arm was 5, 15, 30 min, 1, 2, 4, 6, 8, 12, 24 hours post dose, and for PO arm was 15, 30 min, 1, 2, 4, 6, 8, 12, 24 hours post dose. Approximately 0.03 mL blood was collected at each time point. Blood of each sample was transferred into plastic micro centrifuge tubes containing EDTA-K2 and collect plasma within 15 min by centrifugation at 4000 g for 5 minutes in a 4° C. centrifuge. Plasma samples were stored in polypropylene tubes. The samples were stored in a freezer at −75±15° C. prior to analysis. Concentrations of compounds in the plasma samples were analyzed using a LC-MS/MS method. WinNonlin (Phoenix™, version 6.1) or other similar software was used for pharmacokinetic calculations. The following pharmacokinetic parameters were calculated, whenever possible from the plasma concentration versus time data: IV administration: C0, CL, Vd, T1/2, AUCinf, AUClast, MRT, Number of Points for Regression; PO administration: Cmax, Tmax, T1/2, AUCinf, AUClast, F %, Number of Points for Regression. The pharmacokinetic data was described using descriptive statistics such as mean, standard deviation.

The test system of data set [3] is RS4;11-G101V cell line. In words: Another in vitro anti-proliferation assay in RS4;11-G101V cell line. It is filed as cell-based, human. On the procedure: as §1
The following table lists the IC50 values of another in vitro anti-proliferation assay in RS4;11-G101V cell line.

As a reminder, the IC50 is the concentration needed to halve the response being measured. Read a low IC50 as greater potency in that assay.

The molecule `CCC12CCN(CC1)[C@](CO)(COC)C2=O` (single isomer, unassigned) [Example 6(isomer 2)] gave a half-maximal inhibitory concentration (IC50) in data set [1] (Homo sapiens, RS4-11, 72 h) of under 5 µM.

Turning to `CC12CCN(CC1)C(CO)(CO)C2=O` [Example 4, 2,2-bis(hydroxymethyl)-4-methyl-1-azabicyclo[2.2.2]octan-3-one], in data set [1] (Homo sapiens, RS4-11, 72 h), the IC50 is over 5 µM.

In data set [1] (Homo sapiens, RS4-11, 72 h), `COCC1(CO)C(=O)C2(C)CCN1CC2` (stereo not shown) [Example 2, 2-(hydroxymethyl)-2-(methoxymethyl)-4-methyl-1-azabicyclo[2.2.2]octan-3-one] displayed an IC50 of under 5 µM.

Consider `COCC1(CO)C(=O)C2(F)CCN1CC2` (stereo not shown) [Example 9, 4-fluoro-2-(hydroxymethyl)-2-(methoxymethyl)-1-azabicyclo[2.2.2]octan-3-one], for which the IC50 in data set [1] (Homo sapiens, RS4-11, 72 h) is over 5 µM.

In the case of `CC(C)OCC1(CO)C(=O)C2(C)CCN1CC2` (single isomer, unassigned) [Example 8(isomer 1), 2-(hydroxymethyl)-2-(isopropoxymethyl)-4-methyl-1-azabicyclo[2.2.2]octan-3-one], the IC50 in data set [1] (Homo sapiens, RS4-11, 72 h) is under 5 µM.

As for `COCC1(CO)C(=O)C2(C(C)C)CCN1CC2` (stereo not shown) [Example 5, 2-(hydroxymethyl)-4-isopropyl-2-(methoxymethyl)-1-azabicyclo[2.2.2]octan-3-one], the IC50 in data set [1] (Homo sapiens, RS4-11, 72 h) is under 5 µM.

For the molecule `COC[C@]1(CO)C(=O)[C@H]2CC[N@]1[C@H](C)C2` [Example 15, (1R,2R,4S,6R)-2-(hydroxymethyl)-2-(methoxymethyl)-6-methylquinuclidin-3-one], in data set [1], the IC50 was under 5 µM. The “bioavailability (in words)” value in data set [2] is “excellent bioavailability”. This molecule returned a Bioavailabilty in data set [2] (Oral, 100 mpk) of 79%. The AUClas in data set [2] (Oral, 100 mpk, plasma) is 26,093 h*ng/mL. In addition, in data set [3], the IC50 is 0.73 µM and the “potency compared with reference compound APR-246” value was “more potent than the reference compound APR-246”.

The molecule `CCOC[C@]1(CO)C(=O)C2(C)CCN1CC2` (single isomer, unassigned) [Example 7(isomer 2)] came in with an IC50 in data set [1] (Homo sapiens, RS4-11, 72 h) of under 5 µM.

The molecule `CCOC[C@@]1(CO)C(=O)C2(C)CCN1CC2` (single isomer, unassigned) [Example 7(isomer 1)] showed a 50% inhibitory concentration (IC50) in data set [1] (Homo sapiens, RS4-11, 72 h) of under 5 µM.

For `COCC1(CO)C(=O)C2CCN1CC2` (stereo not shown) [APR-246, reference compound], the results for the IC50 in data set [1] and in data set [3] were under 5 µM and 1.76 µM, respectively.

In data set [1], `COC[C@@]1(CO)C(=O)C2(C)CCN1CC2` (single isomer, unassigned) [Example 3 (isomer 2)] showed an IC50 of over 5 µM.

In data set [1] (Homo sapiens, RS4-11, 72 h), `CCC12CCN(CC1)[C@@](CO)(COC)C2=O` (single isomer, unassigned) [Example 6(isomer 1)] came in with an IC50 of under 5 µM.

Consider `COC[C@@]1(CO)C(=O)[C@@H]2CC[N@@]1[C@@H](C)C2` [Example 16, (1S,2S,4R,6S)-2-(hydroxymethyl)-2-(methoxymethyl)-6-methylquinuclidin-3-one], for which the IC50 in data set [1] is under 5 µM.

`CC(C)OCC1(CO)C(=O)C2(C)CCN1CC2` (single isomer, unassigned) [Example 8(isomer 2), 2-(hydroxymethyl)-2-(isopropoxymethyl)-4-methyl-1-azabicyclo[2.2.2]octan-3-one] had an IC50 in data set [1] of under 5 µM.

With `COC[C@@]1(CO)C(=O)C2(C)CCN1CC2` (single isomer, unassigned) [Example 3 (isomer 1)], the IC50 in data set [1] (Homo sapiens, RS4-11, 72 h) is under 5 µM.

In turn, `COCC1(CO)C(=O)C2(C(F)(F)F)CCN1CC2` (stereo not shown) [Example 10, 2-(hydroxymethyl)-2-(methoxymethyl)-4-(trifluoromethyl)-1-azabicyclo[2.2.2]octan-3-one] registered an IC50 in data set [1] (Homo sapiens, RS4-11, 72 h) of over 5 µM.
